Non-standard residues stand in square brackets, D forms with d. No end group written: not given here.
Tests used:
[1] = tested on: Dr4 Dw4 restricted human T cell clone MS-1; test: Human T cell proliferation, Dr4 Dw4 restricted clone MS-1; type: cell-based; conditions: FIG. 20
Procedure: (§1) Human T cells reactive to MBP (83-99) may alternatively be used to measure the ability of the peptide analog to inhibit proliferation of T cells induced by native MBP (83-99) peptide. MBP-specific T cells may be obtained as previously described by Martin et al., J. Immunol. 148:1359-1366, 1992. Briefly, T cell lines are established by culture of human T cells with irradiated, DR-matched peripheral blood cells in MEM supplemented with 2 mM L-glutamine, 50 μg/ml gentamicin, penicillin and streptomycin, 100 U/ml rIL-2, and 10% human AB negative serum. Proliferation of these T cell lines is stimulated by culturing a clone with varying concentration (1.1-30 μM) of native […] peptide, 50 μM of the peptide analog or SWM peptide, in the presence of irradiated, DR matched peripheral blood cells, following incubation for approximately 60 hours, the cells are pulsed with ^3H-thymidine for 12 hours and harvested. The amount of incorporated ^3H-thymidine is measured.
The ability of the peptide analogs NBI-5719, 5748, 5765, 5788 and 5789 (SEQ ID NOs: 4-8 respectively) to affect human T cell proliferation was assessed. […] The amount of tritiated thymidine incorporated was measured, and the data represented as the mean plus or minus the standard error of the mean of replicate samples.

[2] = tested on: Dr2b-restricted T cell clone 5F6; test: Cytokine production (TNF-α, IFN-γ) by T cell clone 5F6, EIA; type: cell-based, human; conditions: even at concentrations of 50 μM (data not shown)
Procedure: As discussed in detail below, the production of cytokines may also be assessed. In particular, TNF-α and IFN-γ production are especially interesting. These pro-inflammatory cytokines are thought to play a role in the pathogenesis of the disease. Briefly, T cell clone is incubated in the presence of stimulating MBP peptide and peptide analog or control peptide (SWM) or medium only. After a 24 hour incubation, the levels of TNF-α and IFN-γ in the supernatant are determined using commercially available EIA kits (Endogen, Cambridge, Mass.).
The ability of the peptide analog ligand to influence cytokine production was next measured. The Dr2b-restricted T cell clone 5F6 was incubated in the presence of 3 μM MBP peptide with either 10 μM of NBI-5788 (SEQ ID NO:7) or SWM or medium only. As a control, cells were cultured in the presence of medium alone. After 24 hours, supernatants were removed and the levels of tumor necrosis factor alpha (TNF-α) and interferon-y (IFN-γ) determined using commercially available EIA kits.

EAE in Lewis rats = test: Treatment of MBP(83-99)-induced EAE in Lewis rats with peptide analogs (subcutaneous); type: in vivo, Lewis rat; conditions: 13.2 mg/kg subcutaneously on day 9, FIGS. 10 and 11
Procedure: In this system, experimental allergic encephalomyelitis (EAE) was induced in twelve female Lewis rats by injection of MBP(83-99) peptide in complete Freund's adjuvant (CFA) at the base of the tail. Nine days later, rats were divided into two groups of six animals and subcutaneously injected with 13.2 mg/kg of either peptide analog or a control peptide, sperm whale myoglobin (SWM) (110-121). Animals were monitored daily for disease symptoms and scored in a blinded fashion on a nonlinear ascending scale of 0-4 with increments denoting increasing paralysis. Each individual score was averaged with group cohorts to obtain the mean clinical score.

[3] = tested on: Dr2b restricted human T cell clones reactive to MBP; test: Human T cell proliferation, Dr2b restricted clones; type: cell-based; conditions: Dr2b restricted clone 5F6, 50 μM, FIG. 19
Procedure: as §1
The ability of the peptide analogs NBI-5719, 5748, 5765, 5788 and 5789 (SEQ ID NOs: 4-8 respectively) to affect human T cell proliferation was assessed. A constant amount of peptide analog or the control peptide SWM (50 μM) was cultured with varying concentrations of native MBP(83-99) peptide (1.1-30 μM) in the presence of irradiated, DR matched peripheral blood cells and T cell clones derived from various MS patients. Human T cells (1×10^6) were cultured with DR matched, irradiated peripheral blood cells (PBL, 5×10^6) in medium containing IMDM supplemented with 3 μM MBP83-99, 2 mM L-glutamine, 50 μg/ml gentamicin penicillin/streptomycin, 100 U/ml r1L-2 and 10% human AB-negative serum. Cells were cultured for approximately 60 hours, pulsed with tritiated thymidine for 12 hours, and harvested. The amount of tritiated thymidine incorporated was measured, and the data represented as the mean plus or minus the standard error of the mean of replicate samples.
The ability of the peptide analog to inhibit the proliferative response of MBP-reactive T cells isolated from Dr2b (DrB1* 1501) individuals was determined. A constant amount of NBI-5788 (50 μM) was cultured with varying concentrations of native peptide (1.1-30 μM) in the presence of irradiated, DR matched peripheral blood cells and T cell clones derived from various MS patients.

EAE in SJL/J mice = test: Inhibition of chronic relapsing EAE in SJL/J mice; type: in vivo, mouse; conditions: 20 mg/kg intraperitoneally weekly for 4 weeks
Procedure: The SJL/J (H-2^5) mouse develops a chronic relapsing form of EAE in response to immunization with MBP(83-99) peptide in the presence of pertussis vaccine. The ability of the peptide analogs NBI-5719 (SEQ ID NO:4) and NBI-5765 (SEQ ID NO:6) to inhibit the disease was evaluated (see FIG. 12).
Groups of 10 animals were injected intraperitoneally weekly for 4 weeks with 20 mg/kg of either a control peptide or the peptide analog. The animals were then monitored for disease over the next 2-3 months. […] Beginning around day 70, a relapse occurred reaching a mean clinical score of about 1. […] This is particularly striking since the animals had not been exposed to the APL for approximately one month.

[4] = tested on: rat MHC class II I-A or I-E on splenic adherent cells; test: MHC binding assay (competition with biotin-labeled MBP peptide, flow cytometry); set-up: species or system Lewis rat; conditions: at 100 μM
Procedure: Binding of peptides to MHC molecules may be assayed on whole cells. Briefly, Lewis rat spleen cells are cultured for 3 hours to allow adherent cells to stick to polystyrene petri dishes. Non-adherent cells are removed. Adherent cells, which contain cells expressing MHC class II molecules, are collected by scraping the dishes. The binding of peptide analogs to cells is measured by a fluorescence assay. In this assay, splenic adherent cells are mixed with different concentrations of peptide analogs and incubated for 1 hour at 37° in a CO2 incubator. Following incubation, biotinlabeled MBP (87-99) is added to the culture wells. The cells are incubated for another hour and then washed three times in medium. […] Fluorescence intensity is calculated by subtracting the fluorescence value obtained from cells stained with phycoerythrin-streptavidin alone (control staining) from the fluorescence value obtained from biotin-labeled MBP native peptide plus phycoerythrin-streptavidin (experimental staining). […] Percent inhibition is calculated for each analog and expressed as IC50 values.
The ability of MBP peptides and peptide analogs to bind MHC was measured. […] The binding of MBP (87-99) analogs was measured using a fluorescence assay. […] Percent inhibition was calculated for each analog and expressed as IC50 values.

MS patients = conditions: human, in vivo; cited from earlier work

Molecule: NBI-5765: peptide analog of MBP (83-99), SEQ ID NO:6, sequence in FIG. 8 ([dA]NPVVHAFANIVTPRTP)
- inhibition of MBP-dependent proliferation of clone MS-1 [1]: inhibited the MBP-dependent proliferation in a concentration dependent fashion
- stimulation of cytokine production over background by the analog itself [2]: None
- effect on EAE disease severity versus control peptide (EAE in Lewis rats): significantly reduced the magnitude of the disease
- inhibition of MBP-dependent proliferation of clone 5F6 [3]: inhibited the MBP-dependent proliferation in a concentration dependent fashion
- effect on first phase of EAE (EAE in SJL/J mice; FIG. 12): reduced the level of the disease in the first phase
- effect on relapse of EAE (EAE in SJL/J mice; relapse around day 70): reduced the severity of the relapse

Molecule: a83, A89, A91: analog with residue 83 altered to D-alanine, residue 89 to alanine, and residue 91 to alanine
- inhibition of binding of biotin-labeled MBP peptide to MHC [4]: 25%

Molecule: NBI-5789: peptide analog of MBP (83-99), SEQ ID NO:8, sequence in FIG. 8 ([dA]KPVVHAFANIVTPRTP)
- stimulation of cytokine production over background by the analog itself [2]: None
- inhibition of MBP-dependent proliferation of clone 5F6 [3]: inhibited the MBP-dependent proliferation in a concentration dependent fashion

B1: IFN-γ: cytokine administered in a pilot study in MS patients (protein, UniProt P01579 24-161, looked up)
Interferon gamma: QDPYVKEAENLKKYFNAGHSDVADNGTLFLGILKNWKEESDRKIMQSQIVSFYFKLFKNFKDDQSIQKSVETIKEDMNVKFFNSNKKKRDDFEKLTNYSVTDLNVQRKAIHELIQVMAELSPAAKTGKRKRSQMLFRG
- patients with a clinical exacerbation within one month after initiation of treatment (MS patients): 7 of 18
